The source of these data is US9586959B2, “Substituted tricyclic heterocycles as histamine 4 receptor inhibitors” (C&C RESEARCH LABORATORIES, priority 2011, dated 2017).

Test [1] deals with human serotonin 3 receptor (human 5-HT3 receptor) (Homo sapiens (Human), UniProt P46098). In words: Binding affinity of human serotonin 3 receptor (performed at Cerep). To be noted: for IC50: read-out: Binding affinity (IC50) of human serotonin 3 receptor (h5-HT3R); for inhibition at 10 µM: read-out: % inhibition degree at 10 μM, human serotonin 3 receptor (h5-HT3R). How it is done: The binding assays of the human serotonin 3 receptor for present invention were performed at Cerep (Poitiers, France), and the results of analysis are shown in Table 3.
Chain of human serotonin 3 receptor (human 5-HT3 receptor) (P46098 24-478): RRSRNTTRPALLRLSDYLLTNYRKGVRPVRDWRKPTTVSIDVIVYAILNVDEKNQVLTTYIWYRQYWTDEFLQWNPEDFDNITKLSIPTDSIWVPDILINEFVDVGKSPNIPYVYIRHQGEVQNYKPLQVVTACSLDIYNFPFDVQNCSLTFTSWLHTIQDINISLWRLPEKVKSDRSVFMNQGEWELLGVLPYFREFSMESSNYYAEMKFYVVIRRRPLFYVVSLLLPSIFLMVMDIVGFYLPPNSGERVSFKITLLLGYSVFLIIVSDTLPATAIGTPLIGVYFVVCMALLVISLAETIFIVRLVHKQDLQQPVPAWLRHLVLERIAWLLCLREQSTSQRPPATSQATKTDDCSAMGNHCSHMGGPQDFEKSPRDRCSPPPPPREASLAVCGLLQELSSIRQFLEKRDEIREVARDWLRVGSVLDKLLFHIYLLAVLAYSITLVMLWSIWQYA

Test [2] relates to oxazolone-induced atopic dermatitis, Balb/c mice. In words: Oxazolone-induced atopic dermatitis model in Balb/c mice. Type of test: in vivo. The settings on record: BID, oral, days 8-28. How it is done:
Female, Balb/c mice (6 weeks old, 20±3 g) were purchased from OrientBio Co., Ltd. The animals were housed under conditions of controlled temperature (23±3° C.), humidity (50±5%) and lighting with food and water available ad libitum.
On the beginning day (day 1), mice were sensitized by the topical application of 50 μL of 1% oxazolone in acetone and olive oil (4:1 ratio) on the abdominal skin. On day 8, 10, 12, 15, 17, 19, 22, 24 and 26, 25 μL of 0.2% oxazolone was applied topically on the inner side of right ear of each mouse. Between days 8 and 28, the compound of the invention was administered orally (10 mL/kg) twice a day in the morning and afternoon, and on days 12, 19 and 27, the thickness of the right ear of the mouse was measured. On day 28, the ear tissue of the mouse was extracted, fixed in 10% formalin solution, and then a tissue slide was prepared, stained with H&E (hematoxylin & eosin), and then the thickness of the ear was observed (Journal of Investigative Dermatology, 2008, 128, 79-86). Statistical analysis was analyzed using one-way ANOVA with Dunnett test. Values of p<0.05 were considered statistically significant.

The test system of test [3] is Dermatophagoides farina-induced atopic dermatitis, NC/Nga mice. In words: Dermatophagoides farina-induced atopic dermatitis NC/Nga mouse model. Type of test: in vivo. The settings on record: BID, oral, 3 weeks, control group (Df) 9.0. How it is done: Female, NC/Nga mice (3 weeks old, 15-17 g) were purchased from Central Lab. Animal Inc. The animals were housed in conditions of controlled temperature (23±3° C.), humidity (50±5%) and lighting with food and water available ad libitum.
The hair of back of the mice was shaved with clipper, and the remaining hair was removed completely using shaving cream. For barrier disruption, 150 μL of 4% sodium dodecyl sulfate (SDS) was applied to the shaved back skin The Df ointment (100 mg/mouse) was applied twice a week for 3 weeks. The compound were administered orally twice a day in the morning and afternoon for 3 weeks, and then the severity of dermatitis was evaluated on days 2, 7, 10, 14 and 21. The development of (1) erythema/haemorrhage, (2) scarring/dryness, (3) oedema, (4) excoriation/erosion was scored as 0 (none), 1 (mild), 2 (moderate) and 3 (severe). The total skin score was defined as the sum of the individual scores. (Scandinavian Journal of Immunol. 2011, 73, 536-545). Statistical analysis was analyzed using one-way ANOVA with Dunnett test. Values of p<0.05 were considered statistically.

What is called IC50 is the midpoint of a concentration-inhibition curve. Usually inhibition stands for the share of the control response that was lost under treatment.

Consider `CNC1CN(c2nc3ncc(Cl)cc3n3cnnc23)C1` [Compound 18, 1-(8-Chloropyrido[2,3-e][1,2,4]triazolo[4,3-a]pyrazin-4-yl)-N-methylazetidin-3-amine], for which, in test [1], the IC50 was 2.9 µM.
`CN1CCN(c2nc3ncc(Cl)cc3n3cnnc23)CC1` [Compound 4, 8-Chloro-4-(4-methylpiperazin-1-yl)pyrido[2,3-e][1,2,4]triazolo[4,3-a]pyrazine]: the “Ear epidermis thickness (% change from control group)” value in test [2] (100 mg/kg) worked out at 47.2%.
For the compound `CNC1CN(c2nc3ncc(Br)cc3n3cnnc23)C1` [Compound 24, 1-(8-Bromopyrido[2,3-e][1,2,4]triazolo[4,3-a]pyrazin-4-yl)-N-methylazetidin-3-amine], the concentration for half-maximal inhibition (IC50) in test [1] is 9.1 µM. Besides, the “Scoring of Skin lesions (day 21)” value was 7.2 in test [3] (25 mg/kg) and 4.4^1 in test [3] (50 mg/kg). The “Ear epidermis thickness (% change from control group)” value in test [2] (100 mg/kg) is 51.2^1%.
`CNC1CN(c2nc3ncc(I)cc3n3cnnc23)C1` [Compound 48, 1-(8-Iodopyrido[2,3-e][1,2,4]triazolo[4,3-a]pyrazin-4-yl)-N-methylazetidin-3-amine]: in test [1], the inhibition at 10 µM was 28% and the IC50 is over 10 µM.
On to `CNC1CN(c2nc3ncc(Br)cc3n3nnnc23)C1` [Compound 95, 1-(8-Bromopyrido[2,3-e]tetrazolo[1,5-a]pyrazin-4-yl)-N-methylazetidin-3-amine], for which, in test [1], the inhibition at 10 µM is 25% and the 50% inhibitory concentration (IC50) was over 10 µM. Further, in test [2] (50 mg/kg), the “Ear epidermis thickness (% change from control group)” value was 34.9%.
